Experimental data taken from publication PMC7978038 (Molecular pharmaceutics, 2019).
Like-named read-outs stand apart in the source and are kept apart here.

Key:
in vivo [1] = conditions: male, beagle, dog, po, 1 mg/kg
[2] = mice, 10 mg/kg 2-PMPA equivalent dose, mean ± SEM, n = 3
[3] = oral 2-PMPA; cited from earlier work
[4] = mice, cited from earlier work
[5] = tested on: 100 different transporters, enzymes, and receptors, including several glutamate targets; conditions: selectivity; cited from earlier work
in vivo [6] = conditions: male, CD-1, mouse, iv, 10 mg/kg
[7] = human, microsomes
[8] = dog, microsomes
[9] = mouse, microsomes

SMILES	AUC(0-t) (in vivo [1]) [µM·h]	Cmax (in vivo [1]) [µM]	Tmax (in vivo [1]) [h]	2-PMPA plasma concentration at 30 min post oral administration [2] [nmol/mL]	oral bioavailability (F) [3] [%]	2-PMPA plasma AUC0−t ([4]; oral 2-PMPA, ref our previously published manuscript) [µM·h]	oral bioavailability ([4]; oral) [%]	2-PMPA brain AUC0−t (mice, IV, 10 mg/kg) [nmol·h/g]	2-PMPA brain Cmax (mice, IV, 10 mg/kg) [nmol/g]	activity at 100 different transporters, enzymes, and receptors [5]	AUC(0-t) (in vivo [6]) [µM·h]	Cmax (in vivo [6]) [µM]	Kp (in vivo [6])	Intestinal microsomal stability, intact prodrug level at the end of 1 h incubation [7]	metabolites (including 2 and 3) detected in plasma (mouse, in vivo, po)	Intestinal microsomal stability, intact prodrug level at the end of 1 h incubation [8]	Intestinal microsomal stability, intact prodrug level at the end of 1 h incubation [9]	fold enhancement in 2-PMPA systemic availability versus orally administered 2-PMPA ([4]; oral) [fold]
O=C(O)CCC(CP(=O)(O)O)C(=O)O (stereo not shown) [Prodrug 2-PMPA, 2-(Phosphonomethyl)-pentanedioic acid]	1.44	0.4	2	0.25 ± 0.02	< 1	0.65 ± 0.13	< 1	1.6 ± 0.2	1.2 ± 0.1	no activity	104 ± 19	109 ± 9.5	0.015	–	–	–	–	–
Cc1oc(=O)oc1COC(=O)CCC(CP(=O)(OCc1oc(=O)oc1C)OCc1oc(=O)oc1C)C(=O)OCc1oc(=O)oc1C (stereo not shown) [Prodrug 4]	–	–	–	–	–	–	–	–	–	–	–	–	–	did not show any intact prodrug level	No metabolites, including 2 and 3, were detected	did not show any intact prodrug level	did not show any intact prodrug level	–
CC(C)OC(=O)OCOC(=O)C(CCC(=O)O)CP(=O)(OCOC(=O)OC(C)C)OCOC(=O)OC(C)C (stereo not shown) [Prodrug 21b]	–	–	–	–	–	–	11.5	–	–	–	–	–	–	–	–	–	–	20
